These results are taken from patent US10981932B2, “Macrocyclic indole derivatives” (Bayer Aktiengesellschaft, priority 2016, dated 2021).

The subject of data set [1] is SUDHL10. The experiment in a line: Induction of caspase-3/7 activity (Caspase-Glo 3/7), SUDHL10. The data set is classed as cell-based. The settings on record: caspase-3/7 induction, SUDHL10 cells, 3 h treatment, median. The method, boiled down:
(§1)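 Caspase-Glo 3/7 luminescence, 3 h compound exposure, 37 °C, humidified. Minus medium-only blank. EC50 fit: C0=1, plateau = reference max induction.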

For data set [2], the system named is SUDHL5. Nature of the data set: Anti-proliferative effect (CellTiter-Glo, 72 h), SUDHL5. The settings on record: SUDHL5 cells, antiproliferation, 72 h incubation, median, read-out: Antiproli SUDHL5 [M] (median). It counts as cell-based. The method, boiled down: (§2)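 CTG luminescence read-out after 72 h compound exposure, 37 °C, humidified. Time-zero reference plate read at plating.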

The test system of data set [3] is SUDHL5. The experiment in a line: Induction of cytotoxicity (CellTiter-Glo, 5 h), SUDHL5. The settings on record: read-out: Cytotox SUDHL5 [M] (median); SUDHL5 cells, cytotoxicity induction, CellTiter-Glo, 5 h incubation, median.
In a further data set the target is MCL-1 (Homo sapiens, UniProt Q07820). The experiment in a line: Protein-protein interaction assay MCL-1/Noxa BH3 peptide (MCL-1 assay), TR-FRET. The settings on record: MBP-MCL-1 / Noxa BH3-derived peptide, median. It counts as binding. The method, boiled down:
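Displacement of the biotinylated Noxa BH3 peptide from MBP-tagged human MCL-1 (1 nM) is detected by time-resolved FRET. Compounds are tested in duplicate across eleven concentrations up to 20 μM, incubated 1 h at 22 °C and overnight at 4 °C, and IC50 is fitted with a four-parameter equation.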
(In general: In TR-FRET formats the signal depends on donor and acceptor labels being close together.)

Data set [4] concerns SUDHL10. Nature of the data set: Induction of cytotoxicity (CellTiter-Glo, 5 h), SUDHL10.
In data set [5] the test system is SUDHL10. The experiment in a line: Anti-proliferative effect (CellTiter-Glo, 72 h), SUDHL10. It counts as cell-based. The settings on record: SUDHL10 cells, antiproliferation, 72 h incubation, median, read-out: Antiproli SUDHL10 [M] (median). The method, boiled down:
as §2
For orientation: Cellular ATP, detected with luciferase, serves as a proxy for viable cell number.

The test system of a further data set is A2780. The experiment in a line: Anti-proliferative effect (CellTiter-Glo, 72 h), A2780. It counts as cell-based. The settings on record: A2780 cells, median, read-out: IC50 antiproliferation assay A2780 [M] (median). Put shortly: as §2
The subject of data set [6] is SUDHL5. Nature of the data set: Induction of caspase-3/7 activity (Caspase-Glo 3/7), SUDHL5. It counts as cell-based. The settings on record: caspase-3/7 induction, SUDHL5 cells, 3 h treatment; median. The method, boiled down: as §1
Where [7] appears, read: Homo sapiens, SU-DHL10, 5 h, read-out: Cytotox SUDHL10 [M] (median), SUDHL10 cells, cytotoxicity induction, CellTiter-Glo, 5 h incubation, median.
Setting [8] is: read-out: Cytotox SUDHL10 [M] (median), SUDHL10 cells, cytotoxicity induction, CellTiter-Glo, 5 h incubation, median.

Counter-ions that a name gives are not always drawn. Like-named read-outs stand apart in the source and are kept apart here. A value given as a limit tells only on which side of the number the result lay.

Sequence of MCL-1 (Q07820 whole entry): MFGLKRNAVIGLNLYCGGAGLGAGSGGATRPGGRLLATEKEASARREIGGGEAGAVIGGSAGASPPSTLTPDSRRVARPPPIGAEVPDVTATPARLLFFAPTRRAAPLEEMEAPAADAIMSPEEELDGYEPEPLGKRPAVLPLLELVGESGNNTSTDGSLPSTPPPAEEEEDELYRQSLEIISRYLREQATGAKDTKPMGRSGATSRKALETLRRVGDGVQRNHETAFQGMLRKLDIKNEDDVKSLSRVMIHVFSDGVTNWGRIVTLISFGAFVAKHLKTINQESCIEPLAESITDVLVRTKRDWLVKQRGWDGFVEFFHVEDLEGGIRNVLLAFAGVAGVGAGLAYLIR

As usually defined, the EC50 is the concentration needed to bring the measured effect to its halfway point. The low end stands for a more potent agent, the high end for a less potent agent. `Cn1nc(COc2cncnc2)c2c1COCCCCn1c(C(=O)O)c(CCCOc3cccc4ccccc34)c3cccc-2c31` (single isomer, unassigned) [Example 211, 1-methyl-7-[3-(naphthalen-1-yloxy)propyl]-3-[(pyrimidin-5-yloxy)methyl]-1,10,11,12,13,15-hexahydropyrazolo[4′,3′:9,10][1,6]oxazacycloundecino[8,7,6-hi]indole-8-carboxylic Acid]: the EC50 in the data set with SUDHL10 [1] (Homo sapiens, SU-DHL10, 3 h) is above 33 µM; in the data set with SUDHL5 [6], above 33 µM. For the same molecule, the IC50 with SUDHL5 [2] was 2.44e-06 M; in the data set on SUDHL5 [3], above 3.3e-05 M; on MCL-1 it was 0.174 µM; in the data set with SUDHL10 [4] (setting [7]) it was above 3.3e-05 M; in the data set on SUDHL10 [5] (Homo sapiens, SU-DHL10, 72 h), 4.44e-06 M; in the data set on A2780 (Homo sapiens, A2780, 72 h), above 3.3e-05 M.
Regarding `Cn1ccnc1COCc1nn(C)c2c1-c1cccc3c(CCCOc4cccc5ccccc45)c(C(=O)O)n(c13)CCCCOC2` (single isomer, unassigned) [Example 232, (+)-1-methyl-3-{[(1-methyl-1H-imidazol-2-yl)methoxy]methyl}-7-[3-(naphthalen-1-yloxy)propyl]-1,10,11,12,13,15-hexahydropyrazolo[4′,3′:9,10][1,6]oxazacycloundecino[8,7,6-hi]indole-8-carboxylic Acid], the EC50 stood at 13.1 µM in the data set with SUDHL10 [1] and 9.57 µM in the data set with SUDHL5 [6]. Further, the IC50 in the data set on SUDHL5 [2] is 2.94e-06 M; in the data set on SUDHL5 [3], 7.5e-06 M; on MCL-1 it was 0.00974 µM; in the data set on SUDHL10 [4] (setting [8]), 1.32e-05 M; with SUDHL10 [5] (Homo sapiens, SU-DHL10, 72 h), 1.97e-05 M; in the data set with A2780 (Homo sapiens, A2780, 72 h), above 3.3e-05 M.
Regarding `Cn1ccnc1COCc1nn(C)c2c1-c1cccc3c(CCCOc4cccc5ccccc45)c(C(=O)O)n(c13)CCCCOC2` (single isomer, unassigned) [Example 233, (−)-1-methyl-3-{[(1-methyl-1H-imidazol-2-yl)methoxy]methyl}-7-[3-(naphthalen-1-yloxy)propyl]-1,10,11,12,13,15-hexahydropyrazolo[4′,3′:9,10][1,6]oxazacycloundecino[8,7,6-hi]indole-8-carboxylic Acid], the EC50 was above 33 µM in the data set on SUDHL10 [1] and 25.3 µM in the data set with SUDHL5 [6]. In addition, the IC50 was 9.23e-06 M in the data set with SUDHL5 [2]; 2.15e-05 M with SUDHL5 [3]; 0.242 µM against MCL-1; above 3.3e-05 M with SUDHL10 [4] (setting [8]); 1.85e-05 M in the data set with SUDHL10 [5]; above 3.3e-05 M in the data set with A2780.
In the case of `O=C(O)c1c(CCCOc2cccc3ccccc23)c2cccc3c2n1CCCCOCc1nn2c(c1-3)OCCC2` (single isomer, unassigned) [Example 248, 1-[3-(naphthalen-1-yloxy)propyl]-4,5,6,7,13,14-hexahydro-9H,12H-[1,3]oxazino[3″,2″:1′,5]pyrazolo[4′,3′:9,10][1,6]oxazacycloundecino[8,7,6-hi]indole-2-carboxylic Acid], the 50% effective concentration (EC50) was 12.9 µM in the data set on SUDHL10 [1] and 3.17 µM in the data set with SUDHL5 [6]. In addition, the IC50 was 6.51e-06 M in the data set on SUDHL5 [2]; 3.38e-06 M in the data set with SUDHL5 [3]; 0.00474 µM on MCL-1; 1.29e-05 M with SUDHL10 [4] (setting [8]); 8.78e-06 M in the data set with SUDHL10 [5] (Homo sapiens, SU-DHL10, 72 h); above 3.3e-05 M in the data set with A2780. In addition, the IC50 in the data set on A2780 (Homo sapiens, A2780, 72 h) was 2.34e-05 M.
Consider `O=C(O)c1c(CCCOc2cccc3ccccc23)c2cccc3c2n1CCCCOCc1nn2c(c1-3)OCCC2` (single isomer, unassigned) [Example 249, 1-[3-(naphthalen-1-yloxy)propyl]-4,5,6,7,13,14-hexahydro-9H,12H-[1,3]oxazino[3″,2″:1′,5′]pyrazolo[4′,3′:9,10][1,6]oxazacycloundecino[8,7,6-hi]indole-2-carboxylic Acid], for which the EC50 in the data set on SUDHL10 [1] and in the data set with SUDHL5 [6] was above 33 µM throughout. For the same molecule, the IC50 in the data set with SUDHL5 [2] was 1.79e-05 M; in the data set on SUDHL5 [3] it was above 3.3e-05 M; against MCL-1, 0.0427 µM; in the data set on SUDHL10 [4] (setting [8]) it was above 3.3e-05 M; with SUDHL10 [5], 7.58e-06 M; in the data set on A2780 it was 1.82e-05 M.
In the case of `O=C(O)c1c(CCCOc2cccc3ccccc23)c2cccc3c2n1CCCCOCc1nn2c(c1-3)COCC2` (single isomer, unassigned) [Example 251, 1-[3-(naphthalen-1-yloxy)propyl]-4,5,6,7,12,13-hexahydro-9H,15H-[1,4]oxazino[4″,3″:1′,5]pyrazolo[4′,3′:9,10][1,6]oxazacycloundecino[8,7,6-hi]indole-2-carboxylic acid-N-ethylethanamine Salt], the EC50 in the data set on SUDHL10 [1] (Homo sapiens, SU-DHL10, 3 h) was above 33 µM; in the data set on SUDHL5 [6] it was above 33 µM. The IC50 in the data set on SUDHL5 [2] (Homo sapiens, SU-DHL-5, 72 h) is 6.23e-06 M; with SUDHL5 [3], above 3.3e-05 M; against MCL-1 it was 0.0484 µM; with SUDHL10 [4] (setting [7]), above 3.3e-05 M; in the data set with SUDHL10 [5] (Homo sapiens, SU-DHL10, 72 h), 5.15e-06 M; with A2780 (Homo sapiens, A2780, 72 h) it was 2.84e-05 M.
As to `Cc1ccc2c(C(C)CCOc3cccc4ccccc34)c(C(=O)O)n3c2c1-c1c(C)nn(C)c1COCCCC3` (single isomer, unassigned) [Example 257, 1,3,4-trimethyl-7-[4-(naphthalen-1-yloxy)butan-2-yl]-1,10,11,12,13,15-hexahydropyrazolo[4′,3′:9,10][1,6]oxazacycloundecino[8,7,6-hi]indole-carboxylic Acid], the EC50 with SUDHL10 [1] and in the data set on SUDHL5 [6] was above 33 µM throughout. The IC50 was 2e-05 M in the data set with SUDHL5 [2]; above 3.3e-05 M in the data set with SUDHL5 [3]; 0.669 µM against MCL-1; above 3.3e-05 M with SUDHL10 [4] (setting [8]); 8.12e-06 M in the data set with SUDHL10 [5]; 1.9e-05 M in the data set on A2780 (Homo sapiens, A2780, 72 h).
For the molecule `Cc1ccc2c(C(C)CCOc3cccc4ccccc34)c(C(=O)O)n3c2c1-c1c(C)nn(C)c1COCCCC3` (single isomer, unassigned) [Example 258, 1,3,4-trimethyl-7-[4-(naphthalen-1-yloxy)butan-2-yl]-1,10,11,12,13,15-hexahydropyrazolo[4′,3′:9,10][1,6]oxazacycloundecino[8,7,6-hi]indole-8-carboxylic Acid], the EC50 in the data set on SUDHL10 [1] and in the data set on SUDHL5 [6] was above 33 µM in each case. The IC50 is 1.92e-05 M in the data set on SUDHL5 [2]; above 3.3e-05 M in the data set with SUDHL5 [3]; 12 µM on MCL-1; above 3.3e-05 M in the data set on SUDHL10 [4] (setting [8]); 1.16e-05 M in the data set on SUDHL10 [5]; 2.3e-05 M in the data set with A2780.
As to `Cc1ccc2c(C(C)CCOc3cccc4ccccc34)c(C(=O)O)n3c2c1-c1c(C)nn(C)c1COCCCC3` (single isomer, unassigned) [Example 259, 1,3,4-trimethyl-7-[4-(naphthalen-1-yloxy)butan-2-yl]-1,10,11,12,13,15-hexahydropyrazolo[4′3′:9,10][1,6]oxazacycloundecino[8,7,6-hi]indole-8-carboxylic Acid], the values for the EC50 in the data set on SUDHL10 [1] and in the data set with SUDHL5 [6] were above 33 µM and 31.3 µM, respectively. Besides, the IC50 is above 3.3e-05 M with SUDHL5 [2]; above 3.3e-05 M in the data set on SUDHL5 [3]; 0.577 µM against MCL-1; above 3.3e-05 M with SUDHL10 [4] (setting [8]); 2.96e-05 M in the data set with SUDHL10 [5]; 2.21e-05 M in the data set on A2780.
Consider `Cc1cc(OCCCc2c(C(=O)O)n3c4c(cccc24)-c2c(C)nn(C)c2COCCCC3)cc(C)c1Cl` (single isomer, unassigned; enantiomer 1) [Example 010, 7-[3-(4-chloro-3,5-dimethylphenoxy)propyl]-1,3-dimethyl-1,10,11,12,13,15-hexahydropyrazolo[4′,3′:9,10][1,6]oxazacycloundecino[8,7,6-hi]indole-8-carboxylic acid-N-ethylethanamine Salt (Enantiomer 1)], for which the EC50 in the data set on SUDHL10 [1] (Homo sapiens, SU-DHL10, 3 h) turned out to be 18.6 µM; with SUDHL5 [6] it was 6.62 µM. Also, the IC50 worked out at 1.27e-05 M in the data set with SUDHL5 [2] (Homo sapiens, SU-DHL-5, 72 h); 7.4e-06 M in the data set on SUDHL5 [3]; 0.00496 µM at MCL-1; 2.27e-05 M in the data set on SUDHL10 [4] (setting [7]); 3.91e-06 M in the data set on SUDHL10 [5]; 2.06e-05 M with A2780 (Homo sapiens, A2780, 72 h).
